Experimental data reported in BindingDB's records for doi:10.1016/s0960-894x(00)00661-2 (Niddk, 2001).

Molecular target: T1, Corticotropin-releasing factor receptor 1 (Rattus norvegicus, UniProt P35353)
T1 sequence (P35353 whole entry): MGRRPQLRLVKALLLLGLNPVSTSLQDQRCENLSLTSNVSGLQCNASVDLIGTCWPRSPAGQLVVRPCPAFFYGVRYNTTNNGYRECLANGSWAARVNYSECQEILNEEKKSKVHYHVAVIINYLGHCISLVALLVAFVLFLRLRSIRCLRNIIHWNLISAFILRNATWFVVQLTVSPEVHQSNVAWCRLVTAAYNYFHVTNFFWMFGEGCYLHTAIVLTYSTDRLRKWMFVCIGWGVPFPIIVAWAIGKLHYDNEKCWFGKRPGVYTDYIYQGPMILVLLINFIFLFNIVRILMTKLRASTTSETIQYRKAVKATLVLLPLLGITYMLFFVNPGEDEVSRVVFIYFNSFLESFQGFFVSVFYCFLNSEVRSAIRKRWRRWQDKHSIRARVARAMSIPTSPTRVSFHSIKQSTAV
Assay: ChEBML_51283
Description: Binding affinity towards Corticotropin releasing hormone receptor type 1 of rat cerebellum using [125I]Tyr-sauvagine as radioligand.

## CCC[CH2][Sn]([CH2]CCC)([CH2]CCC)[c]1cc(Cl)c(Nc2nc(C)nc(N(CCC)CC3CC3)c2Cl)c(Cl)c1 [5-Chloro-N-cyclopropylmethyl-N'-(2,6-dichloro-4-tributylstannanyl-phenyl)-2-methyl-N-propyl-pyrimidine-4,6-diamine]
  Ki: 3 nM
